Measurements from ChEMBL document CHEMBL1122907, “Synthesis of 1-[[2-hydroxy-1-(hydroxymethyl)ethoxy] methyl]-5-benzyluracil and its amino analogue, new potent uridine phosphorylase inhibitors with high water solubility” (J Med Chem, 1985).

Experiment: Binding affinity was determined against uridine phosphorylase in Sarcoma 180 cells
Format: cell-based

| SMILES | Ki [nM] |
| --- | --- |
| NCC(CO)OCn1cc(Cc2ccccc2)c(=O)[nH]c1=O (stereo not drawn) | 20 |
| O=c1[nH]c(=O)n(COCCO)cc1Cc1ccccc1 | 98 |
| O=c1[nH]c(=O)n(COC(CO)CO)cc1Cc1ccccc1 | 98 |
